# Experimental data: patent US12097241B2, “Methods of treating kidney failure, and/or improving or stablizing renal function using modified relaxin polypeptides” (BRISTOL-MYERS SQUIBB COMPANY, priority 2017, dated 2024)
# Target: T1, human RXFP1 receptor (Homo sapiens, UniProt Q9HBX9)
# T1 construct: expressed in transfected cells
# T1 sequence (Q9HBX9 1-757): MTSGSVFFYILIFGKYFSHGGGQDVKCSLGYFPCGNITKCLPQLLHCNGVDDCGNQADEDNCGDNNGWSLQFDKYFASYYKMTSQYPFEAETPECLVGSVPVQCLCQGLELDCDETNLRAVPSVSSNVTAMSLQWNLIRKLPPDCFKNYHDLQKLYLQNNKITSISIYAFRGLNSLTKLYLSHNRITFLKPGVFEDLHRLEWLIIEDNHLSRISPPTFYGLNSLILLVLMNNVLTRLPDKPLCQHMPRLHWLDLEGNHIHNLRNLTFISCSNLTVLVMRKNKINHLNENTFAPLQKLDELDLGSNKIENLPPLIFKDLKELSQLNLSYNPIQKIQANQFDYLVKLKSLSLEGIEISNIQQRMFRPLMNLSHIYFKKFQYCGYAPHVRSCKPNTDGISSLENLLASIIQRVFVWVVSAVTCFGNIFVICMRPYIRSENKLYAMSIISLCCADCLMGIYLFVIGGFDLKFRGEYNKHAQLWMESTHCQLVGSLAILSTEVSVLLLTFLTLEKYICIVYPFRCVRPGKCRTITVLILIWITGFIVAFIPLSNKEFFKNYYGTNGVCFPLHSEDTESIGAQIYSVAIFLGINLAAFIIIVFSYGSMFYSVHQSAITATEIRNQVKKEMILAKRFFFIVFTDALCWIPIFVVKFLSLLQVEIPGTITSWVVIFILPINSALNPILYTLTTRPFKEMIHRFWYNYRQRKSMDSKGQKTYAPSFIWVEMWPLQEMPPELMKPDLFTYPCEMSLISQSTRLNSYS
# Test: Intracellular cAMP accumulation assay
# Type: cell-based
# Description: The intracellular cAMP accumulation assay described herein was used to assess relaxin bioactivity and potency.
# CHO-K1 cells (ATCC; Cat. #CRL-9618) stably expressing the human RXFP1 receptor (locus number LOC59350) (10,000/well) were plated into 96-well plates and cultured overnight at 37° C. and 5% CO2. On the following day, the medium was removed from the wells and the cells were stimulated with the addition of ligand (relaxin polypeptide) in 50 uL buffer (1×HBSS, 5 mM HEPES (7.2), 0.5 mM IBMX, 0.1% BSA); incubation was for 10 min at 37° C. Unstimulated cells were utilized as reference controls. Reactions were terminated and cellular cAMP levels were measured using the Homogeneous Time Resolved Fluorescence (HTRF) Dynamic 2 cAMP kit (CisBio, #62AM4PEC) according to the manufacturer's protocol. Plates were analyzed using an EnVision 2104 Multilablel Reader (PerkinElmer). Signal was expressed in terms of the ratio of fluorescence intensity @ 665 nm/fluorescence intensity @620 nm×10,000. The concentration of cAMP in the sample was determined by comparison with standard curves generated from known concentrations of cAMP. The potency of each relaxin was determined using a ten-point concentration response curves which was performed in duplicate. The data were analyzed using Microsoft Excel, Version 2013 Xlfit software. Effective concentration 50 (EC50) values, the point at which the response was one-half maximal, were calculated using a four-parameter logistic equation that allowed for a variable-slope (Table 3).
row,Structure (SMILES),EC50 [nM]
1,CCCCCCCCCCCCCCC(=O)N[C@@H](CCC(=O)N[C@@H](CCC(=O)O)C(=O)N[C@@H](CCC(=O)O)C(=O)N[C@@H](CCC(=O)O)C(=O)N[C@@H](CCC(=O)O)C(=O)N1CCC[C@H]1C(=O)N[C@@H](CCC(=O)O)C(=O)N[C@@H](CCC(=O)O)C(=O)N[C@@H](CCC(=O)O)C(=O)N[C@@H](CCC(=O)O)C(=O)N1CCC[C@H]1C(=O)N[C@@H](CCC(=O)O)C(=O)N[C@@H](CCC(=O)O)C(=O)N[C@@H](CCC(=O)O)C(=O)N[C@@H](CCC(=O)O)C(=O)N1CCC[C@H]1C(=O)N[C@@H](CCC(=O)O)C(=O)N[C@@H](CCC(=O)O)C(=O)N[C@@H](CCC(=O)O)C(=O)N[C@@H](CCC(=O)O)C(=O)NCCON=C(C)c1ccc(C[C@H](N)C(=O)N[C@@H](CC(C)C)C(=O)N[C@@H](Cc2ccc(O)cc2)C(=O)N[C@@H](CO)C(=O)N[C@@H](C)C(=O)N[C@@H](CC(C)C)C(=O)N[C@@H](C)C(=O)N[C@@H](CC(N)=O)C(=O)N[C@@H](CCCCN)C(=O)N[C@H]2CSSC[C@@H]3NC(=O)CNC(=O)[C@H](C(C)C)NC(=O)[C@H](Cc4c[nH]cn4)NC(=O)[C@H](CSSC[C@H](NC(=O)[C@H](CC(C)C)NC(=O)[C@H](CCCCN)NC(=O)[C@@H](NC(=O)[C@@H](NC(=O)[C@H](CCC(=O)O)NC(=O)[C@H](CCC(=O)O)NC(=O)[C@H](CCSC)NC(=O)[C@H](Cc4c[nH]c5ccccc45)NC(=O)[C@H](CO)NC(=O)[C@H](C)N)C(C)C)[C@@H](C)CC)C(=O)NCC(=O)N[C@@H](CCCNC(=N)N)C(=O)N[C@@H](CCC(=O)O)C(=O)N[C@@H](CC(C)C)C(=O)N[C@@H](C(C)C)C(=O)N[C@@H](CCCNC(=N)N)C(=O)N[C@@H](C)C(=O)N[C@@H](CCC(N)=O)C(=O)N[C@@H]([C@@H](C)CC)C(=O)N[C@@H](C)C(=O)N[C@@H]([C@@H](C)CC)C(=O)N[C@H](C(=O)NCC(=O)N[C@@H](CCSC)C(=O)N[C@@H](CO)C(=O)N[C@H](C(=O)N[C@@H](Cc4c[nH]c5ccccc45)C(=O)N[C@@H](CO)C(=O)O)[C@@H](C)O)CSSC[C@@H](C(=O)O)NC(=O)[C@H](Cc4ccccc4)NC(=O)[C@H](CCCNC(=N)N)NC(=O)[C@H](C)NC(=O)[C@H](CC(C)C)NC(=O)[C@H](CO)NC(=O)[C@H](CCCNC(=N)N)NC(=O)[C@H](CCCCN)NC(=O)[C@H]([C@@H](C)O)NC3=O)NC2=O)cc1)C(=O)O [AQ1-EEEEPEEEEPEEEEPEEEE-Glu^γ-C14-CH3],0.33
2,CCCCCCCCCCCCCCCC(=O)N[C@@H](CCC(=O)N[C@@H](CCC(=O)O)C(=O)N[C@@H](CCC(=O)O)C(=O)N[C@@H](CCC(=O)O)C(=O)N[C@@H](CCC(=O)O)C(=O)N1CCC[C@H]1C(=O)N[C@@H](CCC(=O)O)C(=O)N[C@@H](CCC(=O)O)C(=O)N[C@@H](CCC(=O)O)C(=O)N[C@@H](CCC(=O)O)C(=O)N1CCC[C@H]1C(=O)N[C@@H](CCC(=O)O)C(=O)N[C@@H](CCC(=O)O)C(=O)N[C@@H](CCC(=O)O)C(=O)N[C@@H](CCC(=O)O)C(=O)N1CCC[C@H]1C(=O)N[C@@H](CCC(=O)O)C(=O)N[C@@H](CCC(=O)O)C(=O)N[C@@H](CCC(=O)O)C(=O)N[C@@H](CCC(=O)O)C(=O)NCCON=C(C)c1ccc(C[C@H](N)C(=O)N[C@@H](CC(C)C)C(=O)N[C@@H](Cc2ccc(O)cc2)C(=O)N[C@@H](CO)C(=O)N[C@@H](C)C(=O)N[C@@H](CC(C)C)C(=O)N[C@@H](C)C(=O)N[C@@H](CC(N)=O)C(=O)N[C@@H](CCCCN)C(=O)N[C@H]2CSSC[C@@H]3NC(=O)CNC(=O)[C@H](C(C)C)NC(=O)[C@H](Cc4c[nH]cn4)NC(=O)[C@H](CSSC[C@H](NC(=O)[C@H](CC(C)C)NC(=O)[C@H](CCCCN)NC(=O)[C@@H](NC(=O)[C@@H](NC(=O)[C@H](CCC(=O)O)NC(=O)[C@H](CCC(=O)O)NC(=O)[C@H](CCSC)NC(=O)[C@H](Cc4c[nH]c5ccccc45)NC(=O)[C@H](CO)NC(=O)[C@H](C)N)C(C)C)[C@@H](C)CC)C(=O)NCC(=O)N[C@@H](CCCNC(=N)N)C(=O)N[C@@H](CCC(=O)O)C(=O)N[C@@H](CC(C)C)C(=O)N[C@@H](C(C)C)C(=O)N[C@@H](CCCNC(=N)N)C(=O)N[C@@H](C)C(=O)N[C@@H](CCC(N)=O)C(=O)N[C@@H]([C@@H](C)CC)C(=O)N[C@@H](C)C(=O)N[C@@H]([C@@H](C)CC)C(=O)N[C@H](C(=O)NCC(=O)N[C@@H](CCSC)C(=O)N[C@@H](CO)C(=O)N[C@H](C(=O)N[C@@H](Cc4c[nH]c5ccccc45)C(=O)N[C@@H](CO)C(=O)O)[C@@H](C)O)CSSC[C@@H](C(=O)O)NC(=O)[C@H](Cc4ccccc4)NC(=O)[C@H](CCCNC(=N)N)NC(=O)[C@H](C)NC(=O)[C@H](CC(C)C)NC(=O)[C@H](CO)NC(=O)[C@H](CCCNC(=N)N)NC(=O)[C@H](CCCCN)NC(=O)[C@H]([C@@H](C)O)NC3=O)NC2=O)cc1)C(=O)O [AQ1-EEEEPEEEEPEEEEPEEEE-Glu^γ-C15-CH3],0.34
3,CC[C@H](C)[C@@H]1NC(=O)[C@H](C)NC(=O)[C@H]([C@@H](C)CC)NC(=O)[C@H](CCC(N)=O)NC(=O)[C@H](C)NC(=O)[C@H](CCCNC(=N)N)NC(=O)[C@H](C(C)C)NC(=O)[C@H](CC(C)C)NC(=O)[C@H](CCC(=O)O)NC(=O)[C@H](CCCNC(=N)N)NC(=O)CNC(=O)[C@@H](NC(=O)[C@H](CC(C)C)NC(=O)[C@H](CCCCN)NC(=O)[C@@H](NC(=O)[C@@H](NC(=O)[C@H](CCC(=O)O)NC(=O)[C@H](CCC(=O)O)NC(=O)[C@H](CCSC)NC(=O)[C@H](Cc2c[nH]c3ccccc23)NC(=O)[C@H](CO)NC(=O)[C@H](C)N)C(C)C)[C@@H](C)CC)CSSC[C@@H]2NC(=O)[C@@H](NC(=O)[C@H](CCCCN)NC(=O)[C@H](CC(N)=O)NC(=O)[C@H](C)NC(=O)[C@H](CC(C)C)NC(=O)[C@H](C)NC(=O)[C@H](CO)NC(=O)[C@H](Cc3ccc(O)cc3)NC(=O)[C@H](CC(C)C)NC(=O)[C@@H](N)Cc3ccc(C(C)=NOCCNC(=O)[C@H](CCC(=O)O)NC(=O)CNC(=O)CNC(=O)CNC(=O)CNC(=O)[C@H](CO)NC(=O)[C@H](CCCCN)NC(=O)CC[C@H](NC(=O)CCCCCCCCCCCCC(=O)O)C(=O)O)cc3)CSSC[C@H](NC(=O)CNC(=O)[C@H](C(C)C)NC(=O)[C@H](Cc3c[nH]cn3)NC2=O)C(=O)N[C@@H]([C@@H](C)O)C(=O)N[C@@H](CCCCN)C(=O)N[C@@H](CCCNC(=N)N)C(=O)N[C@@H](CO)C(=O)N[C@@H](CC(C)C)C(=O)N[C@@H](C)C(=O)N[C@@H](CCCNC(=N)N)C(=O)N[C@@H](Cc2ccccc2)C(=O)N[C@H](C(=O)O)CSSC[C@@H](C(=O)NCC(=O)N[C@@H](CCSC)C(=O)N[C@@H](CO)C(=O)N[C@H](C(=O)N[C@@H](Cc2c[nH]c3ccccc23)C(=O)N[C@@H](CO)C(=O)O)[C@@H](C)O)NC1=O [AQ1-EGGGGSK-Glu^γ-C13-COOH],0.31
4,CC[C@H](C)[C@@H]1NC(=O)[C@H](C)NC(=O)[C@H]([C@@H](C)CC)NC(=O)[C@H](CCC(N)=O)NC(=O)[C@H](C)NC(=O)[C@H](CCCNC(=N)N)NC(=O)[C@H](C(C)C)NC(=O)[C@H](CC(C)C)NC(=O)[C@H](CCC(=O)O)NC(=O)[C@H](CCCNC(=N)N)NC(=O)CNC(=O)[C@@H](NC(=O)[C@H](CC(C)C)NC(=O)[C@H](CCCCN)NC(=O)[C@@H](NC(=O)[C@@H](NC(=O)[C@H](CCC(=O)O)NC(=O)[C@H](CCC(=O)O)NC(=O)[C@H](CCSC)NC(=O)[C@H](Cc2c[nH]c3ccccc23)NC(=O)[C@H](CO)NC(=O)[C@H](C)N)C(C)C)[C@@H](C)CC)CSSC[C@@H]2NC(=O)[C@@H](NC(=O)[C@H](CCCCN)NC(=O)[C@H](CC(N)=O)NC(=O)[C@H](C)NC(=O)[C@H](CC(C)C)NC(=O)[C@H](C)NC(=O)[C@H](CO)NC(=O)[C@H](Cc3ccc(O)cc3)NC(=O)[C@H](CC(C)C)NC(=O)[C@@H](N)Cc3ccc(C(C)=NOCCNC(=O)[C@H](CCC(=O)O)NC(=O)CNC(=O)CNC(=O)[C@H](CO)NC(=O)CC[C@H](NC(=O)CCCCCCCCCCCCCC(=O)O)C(=O)O)cc3)CSSC[C@H](NC(=O)CNC(=O)[C@H](C(C)C)NC(=O)[C@H](Cc3c[nH]cn3)NC2=O)C(=O)N[C@@H]([C@@H](C)O)C(=O)N[C@@H](CCCCN)C(=O)N[C@@H](CCCNC(=N)N)C(=O)N[C@@H](CO)C(=O)N[C@@H](CC(C)C)C(=O)N[C@@H](C)C(=O)N[C@@H](CCCNC(=N)N)C(=O)N[C@@H](Cc2ccccc2)C(=O)N[C@H](C(=O)O)CSSC[C@@H](C(=O)NCC(=O)N[C@@H](CCSC)C(=O)N[C@@H](CO)C(=O)N[C@H](C(=O)N[C@@H](Cc2c[nH]c3ccccc23)C(=O)N[C@@H](CO)C(=O)O)[C@@H](C)O)NC1=O [AQ1-EGGS-Glu^γ-C14-COOH],0.33
